Each block holds one compound with its values, some of them ahead of it. Peptide text beside a SMILES is read from it.
Assays:
α-synuclein [1] = conditions: cited from earlier work
α-synuclein [2] = molecular target: T1, α-synuclein (Homo sapiens, UniProt P37840); assay: Thioflavin T (TfT) binding assay of α-synuclein fibril formation; format: biochemical; conditions: α-synuclein 140 μM, peptide 700 μM (5-fold molar excess), 10 mM Tris-HCl pH 7.4, 0.02% NaN3, 37°C, shaking; 25 μM TfT
T1 construct: made in house; host or cells: Escherichia coli BL21(DE3)
Protocol: (§1) To determine the effect of peptides on α-synuclein aggregation, we co-incubated α-synuclein with 5-fold molar excess of the screened peptides. The α-synuclein fibril amounts were evaluated by Thioflavin T (TfT) binding assay. It is known that when TfT binds to amyloid fibrils, the fluorescence intensity around 480 nm increases. […] Next, to determine whether or not these increases in fluorescence intensity depend on the fibril amount, we examined the aggregation amount by a light scattering assay at 330 nm. The value of optical density at 330 nm of the α-synuclein solution with the top peptides was also higher compared with that of the α-synuclein solution without peptide, as shown in Figure 4.
Figure 3 Time course of α-synuclein fibril formation. […] 100% is the final fluorescence intensity of α-synuclein without peptide. […]
(§2) All the protein samples were concentrated to approximately 4.0 mg/ml by means of Amicon Ultra-15 filters (Millipore) in 10 mM Tris-HCl, pH 7.4, and centrifuged at 150,000 g for 60 min to remove the insoluble aggregates. […] Fibril formation was monitored by thioflavin T (TfT) fluorescence: 10 μl aliquots were sampled from the incubated samples and added to 1.0 ml of 25 μM TfT in 10 mM Tris buffer, pH 7.4. Fluorescence emission was measured at 485 nm at an excitation wavelength of 450 nm on a FP6500 spectrofluorometer (JASCO). […]

α-synuclein [3] = molecular target: T1, α-synuclein; assay: light scattering assay at 330 nm (total aggregation); format: biochemical; conditions: 5-fold molar excess of peptide, 10 mM Tris-HCl pH 7.4, 0.02% NaN3, 37°C, shaking
Protocol: as §1
Figure 4 Light scattering assay. […] 100% is the optical density at 330 nm of α-synuclein without peptide. […]
as §2

α-synuclein [4] = molecular target: T1, α-synuclein; assay: surface plasmon resonance binding (CM5 sensor chip); conditions: Scatchard plot; for affinity to α-synuclein (in words): peptide immobilized on CM5 chip by amine coupling, α-synuclein injected
Protocol: The affinities of the screened peptides were determined by surface plasmon resonance measurement. The screened peptides were immobilized on a CM5 sensor chip by amine coupling. […] Thus, we added an alanine residue to the N-terminals of these peptides to immobilize them on the CM5 sensor chip and evaluated them. The dissociation constants were determined using a Scatchard plot. […] In the case of PTYF, its KD was more than 10 times that of QSTQ. Since docking simulation still has problems inaccuracy, we have to evaluate several peptides to find good ligands. In this study, we can obtain the high affinity peptide by assaying the top 4 peptides.
Human wild-type α-synuclein expressed in Escherichia coli BL21(DE3) cells transformed the pET28a/human α-synuclein WT plasmid. Following induction with 1 mM isopropyl-1-thio-β-D-galactopyranoside, the α-synuclein was purified by anion exchange chromatography. The bacterial cells were harvested by centrifugation at 5,000 g for 10 min and lysed in 500 mM NaCl, 20 mM Tris-HCl, pH 8.0, and 1 mM EDTA. The lysate was then boiled for 20 min, and centrifuged for 10 min at 20,000 g. The supernatant was dialyzed against 20 mM Tris-HCl, pH 8.0, loaded onto a ResourseQ 6-ml column (Amersham Biosciences) equilibrated in the same buffer, and eluted with a 0 ~1 M NaCl gradient. The α-synuclein-containing fraction was dialyzed against 10 mM Tris-HCl, pH 7.4.
All peptides were immobilized onto the CM5 sensor chip by amine coupling. The CM5 sensor chip (Biacore) was activated by an equimolar mix of NHS (N-hydroxysuccinimide) and EDC (N-ethyl-N'-(dimethylaminopropyl) carbodiimide), coupled with 100 μg/mL of the synthesized peptide in pH-6.0 sodium acetate buffer, and then blocked with ethanolamine. For reference, only activation and protection was carried out, in the same way as mentioned above. The final coupling level of each peptide was approximately 100 RU. Each of the α-synuclein solutions was injected, and at different concentrations a signal increase was observed. The sensor surface was regenerated using 0.5% SDS. The dissociation constants were determined using a Scatchard plot and an equilibrium point.

[5] = tested on: α-synuclein 68–78 (GAVVTGVTAVA); conditions: ref [14]; cited from earlier work
Text: To obtain an effective peptidic aggregation inhibitor, the peptide should bind to the region that plays an important role in amyloid fibril formation. The hydrophobic central region of α-synuclein called the "non-amyloid-β component of the amyloid plaque" (NAC) (residues 61–95) is the most important region in the formation of amyloid-like fibrils.

Compound: N[C@@H](Cc1ccc(O)c(O)c1)C(=O)O [L-DOPA]
- cytotoxicity (in words) (α-synuclein [1]): enhance cytotoxicity

Compound: GAVVTGVTAVA [α-synuclein 68–78, partial peptide in NAC, the target 11-mer peptide]
- amyloid-like fibril formation by itself (in words) [5]: form amyloid-like fibrils by themselves

Compound: PTYF
- KD relative to KD of QSTQ (α-synuclein [4]; peptide immobilized on CM5 chip, alanine residue added to N-terminal): more than 10 times

More lines, main results first:

- fluorescence intensity of TfT relative to solution without peptide (α-synuclein [2]): more than 1.5 times
- optical density at 330 nm relative to solution without peptide (α-synuclein [3]): more than 1.5 times
Compound: C[C@@H](O)[C@H](NC(=O)[C@H](CO)NC(=O)[C@@H](N)CCC(N)=O)C(=O)N[C@@H](CCC(N)=O)C(=O)O [QSTQ] (H-QSTQ-OH; N-terminus and C-terminus assumed)

- optical density at 330 nm relative to solution without peptide (α-synuclein [3]): more than 1.5 times
Compound: AQTQ [tetramer peptide from in silico panning, rank 4]
- affinity to α-synuclein (in words) (α-synuclein [4]): bound to α-synuclein with similar affinity of QSTQ

- affinity to α-synuclein (in words) (α-synuclein [4]): lower affinity than QSTQ and AQTQ
Compound: GSQQ [tetramer peptide from in silico panning, rank 2]

- affinity to α-synuclein (in words) (α-synuclein [4]): lower affinity than QSTQ and AQTQ
Compound: SQTQ [tetramer peptide from in silico panning, rank 3]

— article PMC2244645, “Peptide ligand screening of α-synuclein aggregation modulators by in silico panning” (BMC Bioinformatics, 2007)
